Assays:
MALT1 = target: T1, MALT1 (Homo sapiens, UniProt Q9UDY8); assay: MALT-1 Fluorogenic Peptide Cleavage Assay (MALT1 inhibition assay); assay type: biochemical; conditions: Avi-tagged FL MALT-1, Ac-LRSR-AMC peptide substrate, 30 min pre-incubation, 90 min reaction
T1 construct: Avi-tagged FL MALT-1 (Pharmaron, stored at −70° C.); Avi tag
T1 sequence (Q9UDY8 1-824): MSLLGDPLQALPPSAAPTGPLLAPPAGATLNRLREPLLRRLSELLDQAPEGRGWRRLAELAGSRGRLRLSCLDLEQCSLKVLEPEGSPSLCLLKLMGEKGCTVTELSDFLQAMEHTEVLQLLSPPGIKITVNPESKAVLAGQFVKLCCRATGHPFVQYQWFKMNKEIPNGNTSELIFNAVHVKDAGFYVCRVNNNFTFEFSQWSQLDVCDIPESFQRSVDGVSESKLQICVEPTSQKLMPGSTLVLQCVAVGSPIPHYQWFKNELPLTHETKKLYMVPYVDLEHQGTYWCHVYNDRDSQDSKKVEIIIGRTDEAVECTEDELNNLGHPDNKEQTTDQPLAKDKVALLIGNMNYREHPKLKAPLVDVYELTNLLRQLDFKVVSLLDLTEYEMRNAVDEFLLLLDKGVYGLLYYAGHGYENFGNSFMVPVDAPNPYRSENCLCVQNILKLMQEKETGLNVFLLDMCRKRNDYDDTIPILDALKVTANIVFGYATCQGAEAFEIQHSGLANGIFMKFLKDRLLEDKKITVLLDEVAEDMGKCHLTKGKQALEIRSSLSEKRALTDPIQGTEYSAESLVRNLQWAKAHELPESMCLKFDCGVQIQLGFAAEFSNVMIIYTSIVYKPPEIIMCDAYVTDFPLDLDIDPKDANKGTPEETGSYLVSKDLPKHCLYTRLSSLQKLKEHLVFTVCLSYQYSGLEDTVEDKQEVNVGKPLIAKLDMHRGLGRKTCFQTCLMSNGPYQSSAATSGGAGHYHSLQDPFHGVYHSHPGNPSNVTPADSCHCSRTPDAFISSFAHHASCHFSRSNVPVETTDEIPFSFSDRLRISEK
Description: Inhibition of MALT1 activity by the presence of small molecules was evaluated using MALT-1 Fluorogenic Peptide Cleavage Assay. The assay utilizes a quenched AMC-labelled peptide that contains the MALT-1 recognition sequence and cleavage site (LRSR). MALT-1 mediated cleavage of the peptide relieves the quenching and leads to an increase in fluorescence at excitation (342 nm) and emission (441 nm). The following reagents were obtained commercially and used to prepare standard reagent formulations as further described below: […] The standard reagent formulations used in this assay were prepared and stored as follows. A 1.1 M solution of sodium citrate (161.3 g, 500 mL) was prepared and stored at room temperature. A 10% (w/v) CHAPS solution (2.0 g, 20 mL) was prepared and stored at 4° C. A 500 mM HEPES solution having pH of 6.89 was prepared from 200 mL of a 1 M HEPES solution having a pH of 7.5 using concentrated hydrochloric acid and brought to a final volume of 400 mL with […]® H2O. The substrate, 10 mM Ac-LRSR-AMC Peptide, was prepared (10 mg, 1.370 mL DMSO) and stored at -20° C. Compounds were plated to provide a 2% DMSO final concentration using a ProxiPlate-384 Plus F Black 384-shallow well microplate. The assay-ready plates were equilibrated to room temperature. […] DMSO was added only when compound plates had not been DMSO-backfilled to 2%. MALT-1 was thawed and kept on ice. Peptide substrate was thawed on the bench under ambient conditions. A MALT-1 enzyme working stock was prepared from Avi-tagged FL MALT-1 (40 nM in a prepared reagent volume of 16.5 μL) and the reaction buffer (13.0 mL). MALT1 working stock (5 μL) was added to each well of the microplate. MALT-1 was pre-incubated with compounds for 30 minutes at room temperature. […] The plates were covered and incubated on the bench at room temperature for 90 minutes. Fluorescence intensity was determined using a CLARIOstar microplate reader (BMG LABTECH) using the optimised AMC mode. Before taking readings, a 70% gain was applied on the neutral control well. Compound data were normalised to % Inhibition and used to plot sigmoidal concentration response curves to yield various parameters including IC50. […] Compounds in which an IC50 was not measured are designated as “N/A”.

NF-kB = NF-kB reporter assay in Jurkat cells stimulated with aCD3/aCD28/PMA; assay type: cell-based; conditions: Homo sapiens, Jurkat, Jurkat cells, 1 hr compound incubation, aCD3/aCD28/PMA stimulation 4 hr, One-Glo readout; read-out: NF-kB Reporter Assay IC50
Description: Jurkat cells were maintained in complete RPMI 1640 media supplemented with 10% FBS. Prior to the assay, 120 nL of the serial diluted compound was added in each well of 384-well flat bottom white plate (Corning #3570) by using liquid handler Echo550. Jurkat cells were harvested by centrifugation at 120 g for 10 min and resuspended in fresh RPMI 1640 media without serum. 30 μL of cells (25,000 cells) were seeded in each well of 384-well plate containing compound. After 1 hr incubation at 37° C. in a 5% CO2 incubator, 10 μL of diluted aCD3/aCD28/PMA (final concentration at 5 μg/mL, 5 μg/mL and 0.03 μg/mL, respectively) in RPMI 1640 without serum were added to each well. After incubation at 37° C. in 5% CO2 for 4 hr, 30 μL of One-Glo reagent (Promega #E6120) was added into each well. The plate was left at room temperature for 5 min and the signal was measured on EnVision (PerkinElmer).
Compounds in which an IC50 was not measured are designated as “N/A”.

IC50 (MALT1)	IC50 (NF-kB)	SMILES
< 400 nM	1000 to 2500 nM	COc1ccc2cn(C)nc2c1NS(=O)(=O)c1ccc(-n2cc(C(F)(F)F)cn2)nc1 [Example I-27, N-(6-Methoxy-2-Methylindazol-7-yl)-6-[4-(Trifluoromethyl)Pyrazol-1-yl]pyridine-3-Sulfonamide]
400 to 1000 nM	< 400 nM	COc1ccc2cnn(C)c2c1NS(=O)(=O)c1ccc(-n2ncc(C(F)(F)F)n2)nc1 [Example I-28, N-(6-Methoxy-1-Methyl-1H-Indazol-7-yl)-6-(4-(Trifluoromethyl)-2H-1,2,3-Triazol-2-yl)Pyridine-3-Sulfonamide]
< 400 nM	< 400 nM	COc1ccc2cnn(C)c2c1NS(=O)(=O)c1ccc(-n2cc(C(F)(F)F)nn2)nc1 [Example I-29, N-(6-Methoxy-1-Methyl-1H-Indazol-7-yl)-6-(4-(Trifluoromethyl)-1H-1,2,3-Triazol-1-yl)Pyridine-3-Sulfonamide]
< 400 nM	< 400 nM	COc1ccc2cnn(C)c2c1N(C)S(=O)(=O)c1ccc(-n2ccc(C(F)(F)F)n2)nc1 [Example I-30, N-(6-Methoxy-1-Methylindazol-7-yl)-N-Methyl-6-[3-(Trifluoromethyl) Pyrazol-1-yl] Pyridine-3-Sulfonamide]
< 400 nM	< 400 nM	Cc1ccc2cnn(C)c2c1NS(=O)(=O)c1ccc(-n2cc(C(F)(F)F)cn2)nc1 [Example I-31, N-(1,6-Dimethyl-1H-Indazol-7-yl)-6-(4-(Trifluoromethyl)-1H-Pyrazol-1-yl)Pyridine-3-Sulfonamide]
< 400 nM	< 400 nM	COc1ccc2cnn(C)c2c1NS(=O)(=O)c1ccc(-n2cc(C(C)C)cn2)nc1 [Example I-32, 6-(4-Isopropyl-1H-Pyrazol-1-yl)-N-(6-Methoxy-1-Methyl-1H-Indazol-7-yl)Pyridine-3-Sulfonamide]
< 400 nM	400 to 1000 nM	Cc1ccn(-c2ccc(S(=O)(=O)Nc3c(C)ccc4cnn(C)c34)cn2)n1 [Example I-34, N-(1,6-dimethyl-1H-indazol-7-yl)-6-(3-methyl-1H-pyrazol-1-yl)pyridine-3-sulfonamide]
1000 to 2500 nM	< 400 nM	Cc1cc(C(F)(F)F)nn1-c1ccc(S(=O)(=O)Nc2cccc3cnn(C)c23)cn1 [Example I-43, 6-[5-Methyl-3-(Trifluoromethyl)Pyrazol-1-Yl]-N-(1-Methylindazol-7-yl)Pyridine-3-Sulfonamide]
400 to 1000 nM	< 400 nM	Cc1cn(-c2ccc(S(=O)(=O)Nc3cccc4cnn(C)c34)cn2)nc1C(F)(F)F [Example I-44, 6-[4-Methyl-3-(Trifluoromethyl)Pyrazol-1-Yl]-N-(1-Methylindazol-7-yl)Pyridine-3-Sulfonamide]
< 400 nM	< 400 nM	COc1ccc2cnn(C)c2c1N(C)S(=O)(=O)c1ccc(-c2cc(C(F)(F)F)n[nH]2)nc1 [Example I-48, N-(6-Methoxy-1-Methyl-1H-Indazol-7-yl)-N-Methyl-6-(3-(Trifluoromethyl)-1H-Pyrazol-5-yl)Pyridine-3-Sulfonamide]
< 400 nM	< 400 nM	COc1ccc2cnn(C)c2c1NS(=O)(=O)c1ccc(-c2cc(C(F)(F)F)n(C)n2)nc1 [Example I-49, N-(6-Methoxy-1-Methyl-1H-Indazol-7-yl)-6-(1-Methyl-5-(Trifluoromethyl)-1H-Pyrazol-3-yl)Pyridine-3-Sulfonamide]

The remaining lines, values behind:

SMILES	IC50 (MALT1)	IC50 (NF-kB)
Cn1cc2ccc(Cl)c(NS(=O)(=O)c3ccc(-n4cc(C(F)(F)F)cn4)nc3)c2n1 [Example I-25, N-(6-Chloro-2-Methyl-2H-Indazol-7-yl)-6-(4-(Trifluoromethyl)-1H-Pyrazol-1-yl)Pyridine-3-Sulfonamide]	1000 to 2500 nM	> 2500 nM
CCc1ccc2cn(C)nc2c1NS(=O)(=O)c1ccc(-n2cc(C(F)(F)F)cn2)nc1 [Example I-26, N-(6-Ethyl-2-Methylindazol-7-yl)-6-[4-(Trifluoromethyl)Pyrazol-1-yl]pyridine-3-Sulfonamide]	< 400 nM	> 2500 nM
CCc1ccc2cnn(C)c2c1NS(=O)(=O)c1ccc(-n2ccc(C)n2)nc1 [Example I-33, N-(6-Ethyl-1-Methyl-1H-Indazol-7-yl)-6-(3-Methyl-1H-Pyrazol-1-yl)Pyridine-3-Sulfonamide]	< 400 nM	< 400 nM
COc1cnn(-c2ccc(S(=O)(=O)Nc3cccc4cnn(C)c34)cn2)c1 [Example I-35, 6-(4-Methoxy-1H-Pyrazol-1-yl)-N-(1-Methyl-1H-Indazol-7-yl)Pyridine-3-Sulfonamide]	> 2500 nM	< 400 nM
CC(C)c1ccn(-c2ccc(S(=O)(=O)Nc3cccc4cnn(C)c34)cn2)n1 [Example I-36, 6-(3-Isopropyl-1H-Pyrazol-1-yl)-N-(1-Methyl-1H-Indazol-7-yl)Pyridine-3-Sulfonamide]	> 2500 nM	< 400 nM
Cc1ncn(-c2ccc(S(=O)(=O)Nc3cccc4cnn(C)c34)cn2)n1 [Example I-37, 6-(3-Methyl-1H-1,2,4-Triazol-1-yl)-N-(1-Methyl-1H-Indazol-7-yl)Pyridine-3-Sulfonamide]	> 2500 nM	1000 to 2500 nM
Cn1ncc2cccc(NS(=O)(=O)c3ccc(-n4cc(F)cn4)nc3)c21 [Example I-38, 6-(4-Fluoro-1H-Pyrazol-1-yl)-N-(1-Methyl-1H-Indazol-7-yl) Pyridine-3-Sulfonamide]	1000 to 2500 nM	< 400 nM
Cn1ncc2cccc(NS(=O)(=O)c3ccc(-n4cc(C#N)cn4)nc3)c21 [Example I-39, 6-(4-Cyano-1H-Pyrazol-1-yl)-N-(1-Methyl-1H-Indazol-7-yl)Pyridine-3-Sulfonamide]	> 2500 nM	400 to 1000 nM
Cc1cc(C)n(-c2ccc(S(=O)(=O)Nc3cccc4cnn(C)c34)cn2)n1 [Example I-40, 6-(3,5-Dimethyl-1H-Pyrazol-1-yl)-N-(1-Methyl-1H-Indazol-7-yl)Pyridine-3-Sulfonamide]	> 2500 nM	< 400 nM
Cn1ncc2cccc(NS(=O)(=O)c3ccc(-n4cc([N+](=O)[O-])cn4)nc3)c21 [Example I-41, N-(1-Methylindazol-7-yl)-6-(4-Nitropyrazol-1-yl)Pyridine-3-Sulfonamide]	< 400 nM	400 to 1000 nM
Cc1nn(-c2ccc(S(=O)(=O)Nc3cccc4cnn(C)c34)cn2)c(C)c1Cl [Example I-42, 6-(4-Chloro-3,5-Dimethyl-1H-Pyrazol-1-yl)-N-(1-Methyl-1H-Indazol-7-yl) Pyridine-3-Sulfonamide]	> 2500 nM	< 400 nM

From patent US20240150365A1 (Hotspot Therapeutics, Inc., priority 2022, published 2024)
